Laboratory results from the supplement of paper PMC4862054.

What was measured:
Conditions in all cases: incubation time: 72 h
BT-474 = experiment: normalised response (% of control), CellTiter-Glo; higher = more viable cells (100 = DMSO, 0 = benzethonium chloride kill control)
Procedure, shortened: (§1)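 Each value is the plate-normalised signal at one concentration of the series. Breast cancer cell lines (20 µl suspension) were incubated 72 h in 384-well plates with compound at 5 concentrations in 10-fold steps over a compound-specific 10,000-fold range. CellTox Green and then CellTiter-Glo were read, and each plate was scaled to 0.1 % DMSO (100) and a positive kill control (0).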

MDA-MB-468 = experiment: as above
Procedure, shortened: as §1

HCC1599 = experiment: as above
Procedure, shortened: as §1

MFM-223 [1] = experiment: as above
Procedure, shortened: as §1

HCC1143 = experiment: as above
Procedure, shortened: as §1

CAL-51 = experiment: as above
Procedure, shortened: as §1

Hs578T [2] = experiment: as above
Procedure, shortened: as §1

MCF-10A [3] = experiment: as above
Procedure, shortened: as §1

CAL-148 = experiment: as above
Procedure, shortened: as §1

HCC1937 = experiment: as above
Procedure, shortened: as §1

BT-549 [4] = experiment: as above
Procedure, shortened: as §1

SK-BR-3 = experiment: as above
Procedure, shortened: as §1

MDA-MB-231 = experiment: as above
Procedure, shortened: as §1

CAL-120 = experiment: as above
Procedure, shortened: as §1

MDA-MB-453 [5] = experiment: as above
Procedure, shortened: as §1

CAL-85-1 = experiment: as above
Procedure, shortened: as §1

MDA-MB-436 = experiment: as above
Procedure, shortened: as §1

HDQ-P1 = experiment: as above
Procedure, shortened: as §1

DU-4475 = experiment: normalised response (% of control), CellTox Green; higher = less cell death (100 = DMSO, 0 = benzethonium chloride kill control)
Procedure, shortened: as §1

MFM-223 [6] = experiment: as above
Procedure, shortened: as §1

Hs578T [7] = experiment: as above
Procedure, shortened: as §1

MCF-10A [8] = experiment: as above
Procedure, shortened: as §1

BT-549 [9] = experiment: as above
Procedure, shortened: as §1

MDA-MB-453 [10] = experiment: as above
Procedure, shortened: as §1

Row | SMILES | normalised response (BT-474) | normalised response (MDA-MB-468) | normalised response (HCC1599) | normalised response (MFM-223 [1]) | normalised response (HCC1143) | normalised response (CAL-51) | normalised response (Hs578T [2]) | normalised response (MCF-10A [3]) | normalised response (CAL-148) | normalised response (HCC1937) | normalised response (BT-549 [4]) | normalised response (SK-BR-3) | normalised response (MDA-MB-231) | normalised response (CAL-120) | normalised response (MDA-MB-453 [5]) | normalised response (CAL-85-1) | normalised response (MDA-MB-436) | normalised response (HDQ-P1) | normalised response (DU-4475) | normalised response (MFM-223 [6]) | normalised response (Hs578T [7]) | normalised response (MCF-10A [8]) | normalised response (BT-549 [9]) | normalised response (MDA-MB-453 [10])
1 | Cc1c(N)nc([C@H](CC(N)=O)NC[C@H](N)C(N)=O)nc1C(=O)N[C@H](C(=O)N[C@H](C)[C@@H](O)[C@H](C)C(=O)N[C@H](C(=O)NCCc1nc(-c2nc(C(=O)NCCC[S+](C)C)cs2)cs1)[C@@H](C)O)[C@@H](OC1OC(CO)C(O)C(O)C1OC1OC(CO)C(O)C(OC(N)=O)C1O)c1cnc[nH]1 (stereo partly specified) [Bleomycin] (1000 nM) | 91.3% | 86.1% | 105% | 99.6% | 83.1% | 49% | 86.5% | 96% | 82.1% | 94.2% | 66.7% | 84.8% | 88.3% | 91.9% | 91% | 91.9% | 82.3% | 103% | 97.5% | 88% | 67.4% | 92.5% | 92% | 99.1%
2 | CCCCCOC(=O)Nc1nc(=O)n([C@@H]2O[C@H](C)[C@@H](O)[C@H]2O)cc1F [Capecitabine] (1000 nM) | 103% | 101% | 104% | 102% | 103% | 112% | 107% | 97% | 98.6% | 94% | 104% | 105% | 98.2% | 107% | 111% | 92.2% | 98.7% | 96.2% | 99.2% | 99.4% | 71.7% | 64.8% | 117% | 103%
3 | CC(C)C[C@H](NC(=O)[C@H](CCc1ccccc1)NC(=O)CN1CCOCC1)C(=O)N[C@@H](Cc1ccccc1)C(=O)N[C@@H](CC(C)C)C(=O)[C@@]1(C)CO1 [Carfilzomib] (100 nM) | 0.61% | 0.79% | 52% | 4.43% | 8.24% | 2.57% | 0.88% | 43.6% | 0.66% | 4.85% | 1.4% | 3.27% | 0.22% | 2.73% | 12.2% | 0.78% | 1.46% | 0.29% | 86.1% | 32.8% | 46.7% | 69.7% | 50.8% | 90.1%
4 | Nc1nc(Cl)nc2c1ncn2[C@@H]1O[C@H](CO)[C@@H](O)[C@@H]1F [Clofarabine] (1000 nM) | 78.7% | 43.7% | 61.7% | 103% | 44.1% | 26.9% | 91.9% | 68.1% | 58.5% | 89.9% | 35.7% | 42.7% | 91% | 75.3% | 127% | 47.4% | 22.9% | 79.4% | 103% | 99% | 95.3% | 110% | 70.7% | 113%
5 | C[C@@H]1C[C@H]2[C@@H]3CCC4=CC(=O)C=C[C@]4(C)[C@@]3(F)[C@@H](O)C[C@]2(C)[C@@]1(O)C(=O)CO [Dexamethasone] (1000 nM) | 139% | 102% | 97.8% | 93.5% | 97.6% | 124% | 108% | 80.6% | 92.5% | 98.1% | 102% | 83.5% | 159% | 68.7% | 84.6% | 112% | 104% | 83.6% | 96% | 54.1% | 77.8% | 78.1% | 111% | 94.8%
6 | CC(C)C(=O)Nc1ccc([N+](=O)[O-])c(C(F)(F)F)c1 [Flutamide] (1000 nM) | 103% | 96.9% | 111% | 99.8% | 100% | 93.2% | 100% | 99.3% | 99.9% | 96.2% | 103% | 93.9% | 101% | 94.7% | 99.7% | 93.5% | 98.1% | 101% | 99.8% | 99% | 108% | 97.9% | 115% | 102%
7 | COc1cc2c(Oc3ccc(NC(=O)C4(C(=O)Nc5ccc(F)cc5)CC4)cc3F)ccnc2cc1OCCCN1CCOCC1 [Foretinib] (100 nM) | 92.3% | 105% | 89.8% | 75.7% | 93.8% | 99.5% | 96.1% | 95.1% | 102% | 98.1% | 114% | 107% | 87% | 93.9% | 85.6% | 98% | 110% | 95.5% | 101% | 101% | 83.7% | 111% | 113% | 107%
8 | O=NN(CCCl)C(=O)NC1CCCCC1 [Lomustine] (1000 nM) | 101% | 104% | 128% | 98% | 98.1% | 112% | 101% | 105% | 95.3% | 102% | 107% | 94.6% | 98.5% | 100% | 113% | 94.1% | 104% | 102% | 99.4% | 97% | 98.3% | 96.9% | 104% | 103%
9 | O=C(O)CC[C@H]1CC[C@@](c2cc(F)ccc2F)(S(=O)(=O)c2ccc(Cl)cc2)CC1 [MK-0752] (100 nM) | 98.7% | 107% | 109% | 109% | 108% | 113% | 103% | 109% | 95.4% | 98.5% | 91.6% | 109% | 104% | 95.6% | 108% | 92% | 104% | 95.6% | 107% | 94% | 97.3% | 114% | 131% | 111%
10 | NC1(c2ccc(-c3nc4ccn5c(=O)[nH]nc5c4cc3-c3ccccc3)cc2)CCC1 [MK-2206] (100 nM) | 97.4% | 94.6% | 104% | 98.5% | 98.2% | 95.1% | 97.2% | 107% | 97% | 96.6% | 90.3% | 83.5% | 103% | 99.8% | 76.5% | 109% | 108% | 99.2% | 104% | 92% | 116% | 105% | 133% | 105%
11 | NC(=O)c1cccc2cn(-c3ccc([C@@H]4CCCNC4)cc3)nc12 [MK-4827] (1000 nM) | 109% | 101% | 107% | 106% | 104% | 95.2% | 102% | 106% | 97.6% | 105% | 97.4% | 98.8% | 109% | 101% | 140% | 105% | 79.3% | 102% | 97.8% | 101% | 113% | 111% | 134% | 106%
12 | CO[C@H](C(=O)[C@@H](O)[C@@H](C)O)[C@@H]1Cc2cc3cc(O[C@H]4C[C@@H](O[C@@H]5C[C@@H](O)[C@H](O)[C@@H](C)O5)[C@H](O)[C@@H](C)O4)c(C)c(O)c3c(O)c2C(=O)[C@H]1O[C@H]1C[C@@H](O[C@@H]2C[C@@H](O)[C@@H](O[C@@H]3C[C@](C)(O)[C@H](O)[C@@H](C)O3)[C@@H](C)O2)[C@H](O)[C@@H](C)O1 [Plicamycin] (1000 nM) | 91% | 91% | 120% | 104% | 101% | 86.9% | 104% | 110% | 104% | 90% | 89.5% | 106% | 94.2% | 105% | 105% | 100% | 103% | 102% | 104% | 81.3% | 106% | 86.6% | 107% | 104%
13 | C[C@]12C=CC(=O)C=C1CC[C@@H]1[C@@H]2C(=O)C[C@@]2(C)[C@H]1CC[C@]2(O)C(=O)CO [Prednisone] (1000 nM) | 104% | 103% | 113% | 101% | 102% | 120% | 110% | 108% | 105% | 101% | 95.4% | 103% | 103% | 102% | 106% | 92.9% | 104% | 100% | 101% | 84.2% | 105% | 98.8% | 120% | 100%
14 | CN1CCN(c2nc(C3=C(c4c[nH]c5ccccc45)C(=O)NC3=O)c3ccccc3n2)CC1 [Sotrastaurin] (1000 nM) | 105% | 91.6% | 115% | 91.6% | 92.5% | 122% | 101% | 95.3% | 88% | 96% | 101% | 90.9% | 108% | 93.7% | 102% | 121% | 102% | 93.5% | 99.8% | 102% | 105% | 108% | 111% | 105%
